Legend:
Type in all cases: physicochemical
[1] = Preliminary rheometer tensile stretch (stickiness) test of catechol amine hydrogel
Excerpt: (§1) These increases were not observed in control groups. This gives validation to the activity of the newly added catechol components of the system. […] Following this observation we employed the rheometer using a customized protocol to apply a tensile stretch to hydrogels that had immobilized between the base and testing geometry of the rheometry. The geometry was brought into contact with the sample and lowered until 0.4 N normal force was reached by the load cell. At this point, the sample was allowed to equilibrate for 30 seconds, after which the rheometer applied constant displacement vertically at 5 um/s, raising the geometry 1000 um, during which time resistive force (“stickiness”) was measured by the load cell every second.

[2] = Preliminary rheology, shear elastic modulus G′ of modular HA hydrogel with catechol amine; conditions: catechol amine bound to thiolated HA/gelatin hydrogel via thiol-alkyne, FIG. 1
Excerpt: as §1
Mechanical bulk properties. Hydrogels will be formed in custom molded 12 mm dishes and assessed by rheology to determine bulk material shear elastic modulus. […]

[3] = Oscillatory shear-stress sweep test, shear elastic modulus G′ of HyStem hydrogels
Protocol: To a 2 mL centrifuge tube, 200 μL of Heprasil® solution (1% w/v solution, thiolated HA component of HyStem kit), 200 μL of Gelin-S® solution (1% w/v, thiolated gelatin component of HyStem kit), 50 μL of Extralink® solution (2% w/v, polyethylene glycol diacrylate component of HyStem kit), and 50 μL of a modular catecholamine (C1.1) or amide […] solutions (0.25%-1.5% w/v, see Rheology section for specifics) were added and mixed by softly pipetting the solution up and down carefully to avoid creating bubbles. For control experiments the modular catecholamide or amine solutions were replaced with an equivalent volume of sterile deionized water. For rheology or cell culture studies, the reaction mixture was placed into wells of an appropriate size and exposed to UV radiation (˜222 nm) for 1-5 seconds.
A Discovery HR-2 Rheometer (TA Instruments, New Castle, Del.) with an 8 mm geometry was used to collect the rheological data. After reaction set-up, 200 μL of the reaction mixture was transferred into a 12 mm diameter×5 mm depth PDMS well. The PDMS well containing the reaction mixture was then exposed to UV radiation for 5 seconds at a distance of 1 cm. Photo-initiated polymerization and formation of a hydrogel occurred instantaneously. To ensure standard conditions across all experiments the geometry was lowered into the gels until a calibration normal force of 0.4N was achieved. Following, an oscillatory shear-stress sweep test (0.6-10.0 Pa, 1.0 Hz, 25° C.) was applied to hydrogels containing varying concentrations (0%, 1.0%, and 1.5% w/v) of modular amine compounds, C1.1 and C1.2. This experiment was repeated in triplicate for each condition. Average shear elastic modulus, G′, values were determined for each condition.
Shear-stress sweep tests (0.6-10.0 Pa, 1.0 Hz, 25° C.) were applied to hydrogels containing varying solution concentrations (0%, 1.0%, and 1.5% WAV) of modular amine compounds, C1.1/C1.2. Reported here are the average shear elastic modulus G′ values for n=3 runs for each condition (FIGS. 3 and 4). The reported uncertainties were calculated from standard deviations between n=3 averaged G′ values of each condition. In FIG. 3 we report the following G′ values: (2.136×10^3+/−3.988×10^2) Pa for the HyStem® control, (3.166×103+/−6.772×10^2) Pa for the HyStem®+1% w/v catecholamine, and (3.648×103+/8.047×102) Pa for the HyStem®+1.5% w/v catecholamine. […] Thus it was observed that when increasing the % w/v of the catecholamine (C1.1) solution used from 0% w/v, 1% w/v, 1.5% w/v, a proportional increase in G′ was observed, i.e., 1 equivalent of C1.1=1000 Pa increase in G′ and 1.5 equivalent=1500 Pa increase in the G′ of the hydrogel matrix.

Row | Structure (SMILES) | increase in tensile resistance ([1]; catechol amine containing hydrogel, 5 um/s, 1000 um, FIG. 2, preliminary) [fold] | stickiness of hydrogel constructs during mechanical shear testing ([1]; qualitative) | G′ values of the hydrogel constructs (change) [2] | increase in G′ vs HyStem control ([3]; 1.0% w/v compound solution) | increase in G′ over gels containing 1.0% w/v C1.1 ([3]; 1.5% w/v C1.1 solution) [pa] | increase in G′ vs HyStem control ([3]; 1.5% w/v compound solution) | higher increase in G′ over gels containing 1.0% w/v C1.1 solution ([3]; 1.0% w/v C1.2 solution) [Pa] | shear elastic modulus G′ ([3]; Hystem + 1.0% w/v compound solution, n=3)
1 | C#CCNCc1ccc(O)c(O)c1 [Compound C1.1] | 3 | significantly more “stickiness” | further increased the G′ values | ~1.029×10^3+/−3.280×10^1 Pa | 477 | 1.512×10^3+/−3.469×10^1 Pa | – | –
2 | C#CCNC(=O)Cc1ccc(O)c(O)c1 [Compound C1.2] | – | – | – | ~1.817×10^3+/−2.457×10^1 Pa | – | 1.989×10^3+/−1.378×10^1 Pa | 788 | 3.953×10^3+/−1.160×10^2 Pa
